Holding throughout (format): cell-based
In experiment [1] the test system is MDA-MB-231, human breast cancer cells. Description: Proliferation assay MDA-MB-231 (crystal violet, 4 days). Conditions: Homo sapiens, MDA-MB-231, 96 h, MDA-MB-231 cells, median, read-out: Prolif-MDA MB-231, IC50-[mol/l] (median). A digest of the protocol: (§1)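 Following a 24 h attachment in 10% fetal calf serum medium, cells receive test substance over 0.01-10 µmol/L for 4 days. Dye retained by fixed cells is eluted and read at 595 nm; cell number change is referenced to day-0 and untreated wells.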

Experiment [2] has as its system CAL-120, human breast adenocarcinoma cells. Description: Proliferation assay CAL-120 (crystal violet, 4 days). Conditions: Homo sapiens, CAL-120, 96 h, CAL-120 cells, median, read-out: Prolif-CAL-120, IC50-[mol/l] (median). A digest of the protocol: as §1
Experiment [3] concerns the target T1, CDK12 protein level in CAL-120 breast cancer cells (Homo sapiens, UniProt Q9NYV4).
T1 construct: endogenous in cells; host or cells: CAL-120 human breast cancer cells (DSMZ ACC 459)
In words: CDK12 protein level: Protein Simple (CDK12, CAL-120). To be noted: CAL-120 cells, 18 h with compound, CDK12/HSP90 peak area ratio vs vehicle, median, read-out: CDK12 protein level in CAL-120 breast ca cells, DC50-[mol/l] (median). The protocol:
CAL-120 human breast cancer cells (DSMZ ACC 459) were seeded at 300,000 cells/well in 6-well plates containing 2 mL of growth medium (DMEM, 10% FCS, glutamine) and incubated for 24 h at 37° C. in an humidified incubator. Test compounds were added at various concentrations, control wells received solvent (DMSO), and the plates were incubated for another 18 h at 37° C. Cells were washed 2 times with PBS and lysed in 75 microL lysis buffer (MSD-Puffer (MSD, #R60TX-2), +1% 505S+PhosSTOP (Roche #04906837001)+complete mini (Roche #04693159001)) by scraping. The lysates were pushed 2 times through Qiashedders followed by centrifugation at 14,000 rpm for 30-50 sec. The supernatant was stored at −20° C. Proteins were separated by applying 0.4 microgramms of protein lysate to Protein Simple 66-440 kDa (Protein Simple #SM-S002) size assay columns on a PEGGY SUE or SALLY SUE equipment according to the supplier's manual. CDK12 and HSP90 (loading control) were detected using anti-human CDK12 antibody (Cell Signaling Technologies (CST) #11793) at 1:25 dilution and anti-human HSP90 antibody (CST #4877) at 1:5,000 dilution. CDK12 and HSP90 peak areas were determined using Protein Simple Compass software. Ratio of CDK12/HSP90 peak areas were calculated for each sample, and […] values (degrading concentration to achieve 50% reduction relative to vehicle treated control) were determined by means of a 4 parameter fit.

Experiment [4] has as its target T2, CYCLIN K (nuclear staining in CAL-120 cells) (Homo sapiens, UniProt O75909).
T2 construct: endogenous in cells; host or cells: CAL-120 human breast cancer cells (DSMZ ACC 459)
Description: CYCLIN K nuclear protein level: immunofluorescence high content analysis (CAL-120). Conditions: 24 h, 50% reduction of nuclear CCNK staining intensity, median, read-out: CYCLIN K degradation IF, DC50-[mol/l] (median). A digest of the protocol:
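CAL-120 breast cancer cells treated in dose-response for 24 h at 37 °C, PFA-fixed and immunostained for cyclin K with Hoechst counterstain. Confocal imaging quantified nuclear intensity; DC50 is the concentration giving 50% reduction of nuclear CCNK staining, normalized to DMSO and control.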

T2 sequence (O75909 whole entry): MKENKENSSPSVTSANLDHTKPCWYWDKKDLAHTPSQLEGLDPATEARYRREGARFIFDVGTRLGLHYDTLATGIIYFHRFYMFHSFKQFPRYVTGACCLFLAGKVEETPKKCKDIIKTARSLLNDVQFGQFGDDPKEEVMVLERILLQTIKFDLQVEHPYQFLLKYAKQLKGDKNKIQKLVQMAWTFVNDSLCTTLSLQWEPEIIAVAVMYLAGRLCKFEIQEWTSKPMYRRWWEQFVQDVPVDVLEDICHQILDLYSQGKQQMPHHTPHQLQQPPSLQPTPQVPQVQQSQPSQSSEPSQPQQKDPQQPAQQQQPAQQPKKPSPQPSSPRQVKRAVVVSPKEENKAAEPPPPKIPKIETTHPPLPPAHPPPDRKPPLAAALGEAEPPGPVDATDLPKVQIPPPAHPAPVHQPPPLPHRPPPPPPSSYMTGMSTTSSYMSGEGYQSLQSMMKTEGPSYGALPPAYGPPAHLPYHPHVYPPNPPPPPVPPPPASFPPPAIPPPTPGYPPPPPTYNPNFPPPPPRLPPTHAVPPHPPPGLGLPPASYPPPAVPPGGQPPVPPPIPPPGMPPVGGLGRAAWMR
T2 sequence (Q9NYV4 whole entry partner): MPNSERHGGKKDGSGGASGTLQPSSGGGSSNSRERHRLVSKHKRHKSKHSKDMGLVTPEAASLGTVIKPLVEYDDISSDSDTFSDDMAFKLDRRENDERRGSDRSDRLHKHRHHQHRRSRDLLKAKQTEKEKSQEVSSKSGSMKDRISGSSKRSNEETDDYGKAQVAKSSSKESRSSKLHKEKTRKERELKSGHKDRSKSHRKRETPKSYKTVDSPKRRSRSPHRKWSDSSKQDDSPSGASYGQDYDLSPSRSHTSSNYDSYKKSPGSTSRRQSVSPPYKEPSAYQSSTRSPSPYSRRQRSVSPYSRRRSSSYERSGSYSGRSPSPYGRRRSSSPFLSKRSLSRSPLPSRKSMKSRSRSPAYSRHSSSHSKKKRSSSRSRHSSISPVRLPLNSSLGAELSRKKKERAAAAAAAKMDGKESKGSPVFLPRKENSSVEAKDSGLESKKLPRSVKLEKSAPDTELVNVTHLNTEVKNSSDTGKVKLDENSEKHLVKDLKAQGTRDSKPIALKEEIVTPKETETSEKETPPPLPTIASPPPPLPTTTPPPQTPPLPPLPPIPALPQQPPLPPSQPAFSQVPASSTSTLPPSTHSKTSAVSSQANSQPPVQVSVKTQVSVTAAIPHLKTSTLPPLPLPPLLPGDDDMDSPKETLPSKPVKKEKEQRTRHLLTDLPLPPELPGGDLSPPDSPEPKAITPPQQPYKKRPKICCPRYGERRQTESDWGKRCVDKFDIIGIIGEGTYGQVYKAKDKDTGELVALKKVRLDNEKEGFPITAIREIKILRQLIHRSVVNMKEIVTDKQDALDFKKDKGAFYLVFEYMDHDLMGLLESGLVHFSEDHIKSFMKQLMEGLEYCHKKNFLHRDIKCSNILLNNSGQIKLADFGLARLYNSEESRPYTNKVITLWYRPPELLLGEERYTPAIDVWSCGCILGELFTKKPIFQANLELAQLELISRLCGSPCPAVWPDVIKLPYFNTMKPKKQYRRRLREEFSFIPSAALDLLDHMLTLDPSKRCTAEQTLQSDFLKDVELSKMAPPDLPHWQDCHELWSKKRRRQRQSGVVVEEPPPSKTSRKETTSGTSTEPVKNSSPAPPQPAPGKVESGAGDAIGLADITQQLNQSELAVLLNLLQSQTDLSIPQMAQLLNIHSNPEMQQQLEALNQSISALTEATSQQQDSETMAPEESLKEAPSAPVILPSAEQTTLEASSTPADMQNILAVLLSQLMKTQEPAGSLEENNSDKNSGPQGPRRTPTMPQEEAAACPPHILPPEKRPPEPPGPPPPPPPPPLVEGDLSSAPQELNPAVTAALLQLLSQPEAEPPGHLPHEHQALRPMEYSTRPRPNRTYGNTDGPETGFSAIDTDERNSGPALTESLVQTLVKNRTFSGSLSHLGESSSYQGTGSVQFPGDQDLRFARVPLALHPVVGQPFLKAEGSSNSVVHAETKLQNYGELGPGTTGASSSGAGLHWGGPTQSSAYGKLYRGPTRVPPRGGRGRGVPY
T1 sequence (Q9NYV4 whole entry): as the sequence (Q9NYV4 whole entry partner) above
T1 sequence (O75909 whole entry partner): as the sequence (O75909 whole entry) above

For `OC1CCCN(c2nc(NCc3nc4ccccc4[nH]3)n3ncc(Br)c3n2)C1` (racemic) [Example 16, (rac)-1-(4-{[(1H-benzimidazol-2-yl)methyl]amino}-8-bromopyrazolo[1,5-a][1,3,5]triazin-2-yl)piperidin-3-ol], the IC50 is 81.1 nM in experiment [1] and 38.2 nM in experiment [2]. In experiment [3], the DC50 was found to be 58.1 nM.

As to `C[C@H]1CN(c2nc(NCc3nc4ccccc4[nH]3)n3ncc(Br)c3n2)CCN1` [Example 169, N-[(1H-benzimidazol-2-yl)methyl]-8-bromo-2-[(3S)-3-methylpiperazin-1-yl]pyrazolo[1,5-a][1,3,5]triazin-4-amine], the IC50 is 20.7 nM in experiment [1] and 3.56 nM in experiment [2]. For the same compound, the results for the DC50 in experiment [3] and in experiment [4] were 1.04 nM and 1.95 nM, respectively.

In the case of `COc1cccc2[nH]c(CNc3nc(N4C[C@@H]5CCCN[C@@H]5C4)nc4c(C5CC5)cnn34)nc12` [Example 214, 8-cyclopropyl-N-[(4-methoxy-1H-benzimidazol-2-yl)methyl]-2-[(4aS,7aS)-octahydro-6H-pyrrolo[3,4-b]pyridin-6-yl]pyrazolo[1,5-a][1,3,5]triazin-4-amine], the figures for the IC50 in experiment [1] and in experiment [2] were 17.7 nM and 6.2 nM, respectively. For the same compound, the DC50 in experiment [4] worked out at 0.347 nM.

For the compound `Brc1cnn2c(NCc3nc4ccccc4[nH]3)nc(N3CCNC4(CC4)C3)nc12` [Example 176, N-[(1H-benzimidazol-2-yl)methyl]-8-bromo-2-(4,7-diazaspiro[2.5]octan-7-yl)pyrazolo[1,5-a][1,3,5]triazin-4-amine], the figures for the IC50 in experiment [1] and in experiment [2] were 14.6 nM and 4.37 nM, respectively. Moreover, the DC50 in experiment [4] is 0.208 nM.

For `CN1CC[C@@H]2CN(c3nc(NCc4nc5ccccc5[nH]4)n4ncc(Br)c4n3)C[C@@H]21` [Example 217, N-[(1H-benzimidazol-2-yl)methyl]-8-bromo-2-[(3aR,6aR)-1-methylhexahydropyrrolo[3,4-b]pyrrol-5 (1H)-yl]pyrazolo[1,5-a][1,3,5]triazin-4-amine], the IC50 in experiment [1] was 97.9 nM; in experiment [2] it was 44.9 nM. In addition, the DC50 in experiment [4] came out at 4.56 nM.

As to `CN1CCCC2CN(c3nc(NCc4nc5ccccc5[nH]4)n4ncc(Br)c4n3)CC21` (stereo not drawn) [Example 231, N-[(1H-benzimidazol-2-yl)methyl]-8-bromo-2-(1-methyloctahydro-6H-pyrrolo[3,4-b]pyridin-6-yl)pyrazolo[1,5-a][1,3,5]triazin-4-amine], the IC50 came to 110 nM in experiment [1] and 135 nM in experiment [2]. In experiment [4], the DC50 worked out at 34.1 nM.

With `Fc1ccc2[nH]c(CNc3nc(N4CCOCC4)nc4c(C5CC5)cnn34)nc2c1` [Example 181, 8-cyclopropyl-N-[(5-fluoro-1H-benzimidazol-2-yl)methyl]-2-(morpholin-4-yl)pyrazolo[1,5-a][1,3,5]triazin-4-amine], the IC50 stood at 9.29 nM in experiment [1] and 6.1 nM in experiment [2]. In addition, in experiment [4], the DC50 amounted to 0.503 nM.

Turning to `C[C@@H]1CN(c2nc(NCc3nc4c(F)cccc4[nH]3)n3ncc(C4CC4)c3n2)C[C@H](C)N1` [Example 186, 8-cyclopropyl-2-[(3R,5S)-3,5-dimethylpiperazin-1-yl]-N-[(4-fluoro-1H-benzimidazol-2-yl)methyl]pyrazolo[1,5-a][1,3,5]triazin-4-amine], the IC50 in experiment [1] was found to be 4.94 nM; in experiment [2], 4.2 nM. In addition, in experiment [4], the DC50 is 0.16 nM.

Consider `Cc1ccc2[nH]c(CNc3nc(N4CCN(C)CC4)nc4c(C5CC5)cnn34)nc2c1` [Example 210, 8-cyclopropyl-N-[(5-methyl-1H-benzimidazol-2-yl)methyl]-2-(4-methylpiperazin-1-yl)pyrazolo[1,5-a][1,3,5]triazin-4-amine], for which the IC50 in experiment [1] stood at 8.06 nM; in experiment [2] it was 4.66 nM. The DC50 in experiment [4] turned out to be 0.199 nM.

Consider `Fc1ccc2[nH]c(CNc3nc(N4C[C@@H]5CCCN[C@@H]5C4)nc4c(C5CC5)cnn34)nc2c1` [Example 180, 8-cyclopropyl-N-[(5-fluoro-1H-benzimidazol-2-yl)methyl]-2-[(4aS, 7aS)-octahydro-6H-pyrrolo[3,4-b]pyridin-6-yl]pyrazolo[1,5-a][1,3,5]triazin-4-amine], for which the IC50 in experiment [1] was 13.9 nM; in experiment [2] it was 1.27 nM. In addition, in experiment [4], the DC50 was found to be 0.859 nM.

In the case of `Fc1ccc2[nH]c(CNc3nc(N4C[C@@H]5C[C@H]4CO5)nc4c(C5CC5)cnn34)nc2c1F` [Example 173, 8-cyclopropyl-N-[(4,5-difluoro-1H-benzimidazol-2-yl)methyl]-2-[(1S,4S)-2-oxa-5-azabicyclo[2.2.1]heptan-5-yl]pyrazolo[1,5-a][1,3,5]triazin-4-amine], the results for the IC50 in experiment [1] and in experiment [2] were 20.8 nM and 8.14 nM, respectively. The DC50 in experiment [4] amounted to 1.03 nM.

In the case of `Fc1ccc2[nH]c(CNc3nc(N4C[C@@H]5C[C@H]4CO5)nc4c(C5CC5)cnn34)nc2c1` [Example 185, 8-cyclopropyl-N-[(5-fluoro-1H-benzimidazol-2-yl)methyl]-2-[(1S,4S)-2-oxa-5-azabicyclo[2.2.1]heptan-5-yl]pyrazolo[1,5-a][1,3,5]triazin-4-amine], the IC50 in experiment [1] came out at 58.8 nM; in experiment [2], 18.6 nM. Moreover, the DC50 in experiment [4] came out at 2 nM.

For the compound `Cc1ccc2[nH]c(CNc3nc(N4CCOCC4)nc4c(C5CC5)cnn34)nc2c1` [Example 193, 8-cyclopropyl-N-[(5-methyl-1H-benzimidazol-2-yl)methyl]-2-(morpholin-4-yl)pyrazolo[1,5-a][1,3,5]triazin-4-amine], the IC50 was found to be 6.64 nM in experiment [1] and 5.06 nM in experiment [2]. Further, in experiment [4], the DC50 amounted to 0.958 nM.

Turning to `CN1CC[C@H]2CN(c3nc(NCc4nc5ccccc5[nH]4)n4ncc(Br)c4n3)C[C@H]21` [Example 179, N-[(1H-benzimidazol-2-yl)methyl]-8-bromo-2-[(3aS,6aS)-1-methylhexahydropyrrolo[3,4-b]pyrrol-5 (1H)-yl]pyrazolo[1,5-a][1,3,5]triazin-4-amine], the IC50 in experiment [1] was 74.8 nM; in experiment [2], 16.7 nM. Further, in experiment [4], the DC50 amounted to 1.37 nM.

`Brc1cnn2c(NCc3nc4ccccc4[nH]3)nc(N3C[C@H]4CCCN[C@H]4C3)nc12` [Example 199, N-[(1H-benzimidazol-2-yl)methyl]-8-bromo-2-[(4aR, 7aR)-octahydro-6H-pyrrolo[3,4-b]pyridin-6-yl]pyrazolo[1,5-a][1,3,5]triazin-4-amine]: the IC50 in experiment [1] worked out at 53.2 nM; in experiment [2], 15.4 nM. Besides, the DC50 in experiment [4] was 2.32 nM.

`Brc1cnn2c(NCc3nc4ccccc4[nH]3)nc(N3CC4CCC3CN4)nc12` (stereo not drawn) [Example 220, N-(1H-benzimidazol-2-ylmethyl)-8-bromo-2-(2,5-diazabicyclo[2.2.2]octan-2-yl)pyrazolo[1,5-a][1,3,5]triazin-4-amine]: the IC50 in experiment [1] was found to be 21.2 nM; in experiment [2] it was 7.04 nM. Also, the DC50 in experiment [4] was 1.14 nM.

`Fc1cccc2[nH]c(CNc3nc(N4CCNCC4)nc4c(C5CC5)cnn34)nc12` [Example 182, 8-cyclopropyl-N-[(4-fluoro-1H-benzimidazol-2-yl)methyl]-2-(piperazin-1-yl)pyrazolo[1,5-a][1,3,5]triazin-4-amine]: the IC50 in experiment [1] stood at 10.2 nM; in experiment [2], 3.7 nM. For the same compound, the DC50 in experiment [4] was 0.103 nM.

`Fc1cccc2[nH]c(CNc3nc(N4CCOCC4)nc4c(C5CC5)cnn34)nc12` [Example 188, 8-cyclopropyl-N-[(4-fluoro-1H-benzimidazol-2-yl)methyl]-2-(morpholin-4-yl)pyrazolo[1,5-a][1,3,5]triazin-4-amine]: the IC50 in experiment [1] was found to be 16.1 nM; in experiment [2], 17.6 nM. Besides, in experiment [4], the DC50 is 0.815 nM.

Regarding `CC(C)c1cnn2c(NCc3nc4ccccc4[nH]3)nc(Nc3ccncc3)nc12` [Example 14, N^4-[(1H-benzimidazol-2-yl)methyl]-8-(propan-2-yl)-N^2-(pyridin-4-yl)pyrazolo[1,5-a][1,3,5]triazine-2,4-diamine], in experiment [1], the IC50 came to 47 nM. Further, the DC50 in experiment [3] came to 9.38 nM.
